Holding throughout (format): functional
The subject of experiment [1] is Spilarctia obliqua. In words: Antifeedant activity against fourth-instar larval stage of Spilarctia obliqua reared on artificial diet containing compound assessed as growth inhibition […] after 48 hr. The following applies: read-out: GI.
Experiment [2] deals with Spilarctia obliqua. Kind of experiment: Antifeedant activity against fourth-instar larval stage of Spilarctia obliqua reared on artificial diet containing compound assessed as feeding deterrence index at 1000 ppm after 24 hr.
Experiment [3] deals with Spilarctia obliqua. In words: Antifeedant activity against fourth-instar larval stage of Spilarctia obliqua reared on artificial diet containing compound assessed as feeding deterrence index at 2000 ppm after 24 hr.
For experiment [4], the system named is Spilarctia obliqua. Kind of experiment: Antifeedant activity against fourth-instar larval stage of Spilarctia obliqua reared on artificial diet containing compound assessed as feeding deterrence index at 3000 ppm after 24 hr.
The test system of experiment [5] is Spilarctia obliqua. Kind of experiment: Antifeedant activity against fourth-instar larval stage of Spilarctia obliqua reared on artificial diet containing compound assessed as growth inhibition at 5000 ppm after 48 hr. As to conditions: read-out: GI.
In experiment [6] the test system is Spilarctia obliqua. Kind of experiment: Antifeedant activity against fourth-instar larval stage of Spilarctia obliqua reared on artificial diet containing compound assessed as growth inhibition at 3000 ppm after 48 hr. As to conditions: read-out: GI.
For experiment [7], the system named is Spilarctia obliqua. Kind of experiment: Antifeedant activity against fourth-instar larval stage of Spilarctia obliqua reared on artificial diet containing compound assessed as growth inhibition at 1000 ppm after 48 hr. As to conditions: read-out: GI.
Experiment [8] has as its system Spilarctia obliqua. Kind of experiment: Antifeedant activity against fourth-instar larval stage of Spilarctia obliqua reared on artificial diet containing compound assessed as feeding deterrence index at 5000 ppm after 24 hr.
Experiment [9] has as its system Spilarctia obliqua. In words: Antifeedant activity against fourth-instar larval stage of Spilarctia obliqua reared on artificial diet containing compound assessed as growth inhibition at 2000 ppm after 48 hr. The following applies: read-out: GI.
In experiment [10] the test system is Spilarctia obliqua. Kind of experiment: Antifeedant activity against fourth-instar larval stage of Spilarctia obliqua reared on artificial diet containing compound assessed as growth inhibition at 4000 ppm after 48 hr. The following applies: read-out: GI.
Experiment [11] has as its system Spilarctia obliqua. Kind of experiment: Antifeedant activity against fourth-instar larval stage of Spilarctia obliqua reared on artificial diet containing compound assessed as feeding deterrence index at 4000 ppm after 24 hr.

As to `O=C(NC(=O)c1c(F)cccc1F)Nc1ccc(Cl)cc1` [DIFLUBENZURON], in the experiment with Spilarctia obliqua [1], the inhibition of growth at 5 ppm worked out at 100%.
Regarding `C/C=C(\C)C(=O)O[C@H]1C[C@@H](OC(C)=O)[C@@]2(C(=O)OC)CO[C@H]3[C@@H](O)[C@@](C)([C@]45O[C@@]4(C)[C@@H]4C[C@H]5O[C@@H]5OC=C[C@@]54O)[C@H]4[C@]1(CO[C@]4(O)C(=O)OC)[C@@H]32` [AZADIRACHTIN A], the FDI with Spilarctia obliqua [2] was determined as 100%.
For `COc1ccc(CC[C@@H](C)N)cc1`, the FDI was 40% with Spilarctia obliqua [3]; 64% in the experiment with Spilarctia obliqua [4]; 32% with Spilarctia obliqua [2]; 100% in the experiment with Spilarctia obliqua [8]; 82% in the experiment with Spilarctia obliqua [11]. The inhibition of growth at 5000 ppm in the experiment on Spilarctia obliqua [5] was 128%. The inhibition of growth at 3000 ppm in the experiment with Spilarctia obliqua [6] is 72%. Also, the inhibition of growth at 1000 ppm in the experiment on Spilarctia obliqua [7] amounted to 48%. Also, in the experiment with Spilarctia obliqua [9], the inhibition of growth at 2000 ppm turned out to be 59%. Further, the inhibition of growth at 4000 ppm in the experiment on Spilarctia obliqua [10] stood at 100%.

The values above are taken from ChEMBL document CHEMBL3045160, “Betuligenol derivative with growth inhibition and antifeedant activity” (2004).
